In brackets after ≈: the same amount, converted by molar mass. Read-outs that look alike come from different tables or passages of the source. Marks after values point to notes of the source that are not given here. Where a SMILES comes first, the peptide text is derived from it. [ ]: non-standard residue; d: D form. The star is where a group is joined. 4Abz = Nc1ccc(C(=O)O)cc1; Propionyl = CCC(=O)*
What was measured:
[1] = tested on: 2.2.15 cells; assay: Cytotoxicity (TC50, median toxic concentration) in 2.2.15 cells; format: cell-based
Description: (§1) Cell control wells were simultaneously set up. […] IC50 and SI were calculated, respectively.

[2] = tested on: HBV DNA replication; assay: In vitro anti-HBV: inhibition of HBV DNA replication in 2.2.15 cells (dot blot); format: cell-based, hepatitis B virus; conditions: day 8, dot blot; for IC50: Hepatitis B virus, 192 h
Description: as §1

[3] = tested on: DHBV-DNA; assay: In vivo inhibition of DHBV-DNA in DHBV-infected ducklings; conditions: intraperitoneal daily
Source text: Test compounds: the compound prepared in Example 75
Test method: One-day-old ducklings were infected with serum containing DHBV positive virus (about 10^8-9 virions/ml). After a week, blood was collected and tested. The successfully transfected ducklings were randomly divided into three to five groups. Blank group, positive control group and treatment group(s) (one to three groups) were subjected to treatment tests. The treatment groups were divided into high, median and low dose groups. Intraperitoneal injection was carried out daily for ten days. Physiological saline was used to replace drugs in the blank group. Lamivudine was administered in the positive control group. […] Serum was separated and kept at −70° C. for tests. Duck hepatitis B virus surface antigen (DHBsAg) was assayed with DHBsAg dot molecular hybridization (DOT EIA). Duck hepatitis B virus deoxyribonucleic acid (DHBV DNA) contents in serum and duck livers were assayed with dot blot hybridization.

[4] = tested on: HBsAg; assay: In vitro anti-HBV: inhibition of HBsAg secretion in 2.2.15 cell supernatant (RIA); format: cell-based, hepatitis B virus; conditions: for IC50: Hepatitis B virus, 192 h, read-out: Inhibition of HBsAg IC50
Description: Test Principle: • 2.2.15 cells were used as a vector of hepatitis B virus. Samples were assayed for their abilities to inhibit […] to carry out DNA replication and to produce HBsAg and HBeAg.
Test Materials and Method: • a. cell line: 2.2.15 cells; • b. treatment of samples: A sample was dissolved in DMSO in a suitable concentration right before use. The resulting solution was diluted in triple folds with culture media. There are eight dilutions. • c. positive control: Lamivudine (3TC) produced by Glaxo Wellcome; • d. reagents: radioimmunological kits of e antigen and s antigen of hepatitis B virus, α^32PdCTP; • e. test method: 2.2.15 cells were seeded in a 96-well microplate. After 36 hours, samples and positive controls in the above dilutions were added into the wells. Cell control wells were simultaneously set up. Culture media were replaced with fresh culture media containing samples in different dilutions, respectively, after 96 hours of addition of samples and positive controls. At the eighth day of addition of samples and positive controls, cell supernatants and 2.2.15 cells were harvested, respectively. Secretory volumes of HBsAg and HBeAg in the cell supernatants were assayed with the RIA method. The degree of HBV DNA replication in the cells was assayed with dot blot method. IC50 and SI were calculated, respectively.

[5] = tested on: HBeAg; conditions: 2.2.15 cells, day 8, RIA
Description: Test Principle: • 2.2.15 cells were used as a vector of hepatitis B virus. Samples were assayed for their abilities to inhibit NBV to carry out DNA replication and to produce HBsAg and HBeAg.
Test Materials and Method: • a. cell line: 2.2.15 cells; • b. treatment of samples: A sample was dissolved in DMSO in a suitable concentration right before use. The resulting solution was diluted in triple folds with culture media. […] After 36 hours, samples and positive controls in the above dilutions were added into the wells. Cell control wells were simultaneously set up. Culture media were replaced with fresh culture media containing samples in different dilutions, respectively, after 96 hours of addition of samples and positive controls. At the eighth day of addition of samples and positive controls, cell supernatants and 2.2.15 cells were harvested, respectively. Secretory volumes of HBsAg and HBeAg in the cell supernatants were assayed with the RIA method. The degree of HBV DNA replication in the cells was assayed with dot blot method. IC50 and SI were calculated, respectively.

[6] = 50.0 mg/kg, 3rd Day of Withdrawal
[7] = 12.5 mg/kg, 3rd Day of Withdrawal
[8] = 25.0 mg/kg, 3rd Day of Withdrawal

Q: What does the source list for `Nc1ccn([C@@H]2CS[C@H](CO)O2)c(=O)n1` [Example 3TC, Lamivudine, reference compound]?
A: TC50 [1]: 786.00 mg/L (≈ 3430 µM); IC50 [2]: 18.9 mg/L (≈ 82.4 µM); Inhibition Ratio [3, 6]: 0.3; OD Value [3, 6]: 1.54; Inhibition Ratio ([3]; 50.0 mg/kg, 5th Day of Test): 53.71^d; OD Value ([3]; 50.0 mg/kg, 5th Day of Test): 0.73^b; Inhibition Ratio ([3]; 50.0 mg/kg, 10th Day of Test): 57.22^d; OD Value ([3]; 50.0 mg/kg, 10th Day of Test): 0.68^b

Q: Which results are given for `O=C(N[C@@H](Cc1ccc(OCO)cc1)C(=O)N[C@H](CO)Cc1ccccc1)c1ccccc1.[Na]` [Example 80, N-[N-benzoyl-O-hydroxymethyl-L-tyrosyl]-L-phenylalaninol sodium salt]?
A: TC50 [1]: 388.03 mg/L; IC50 [4]: 150 mg/L; IC50 [2]: 27.3 mg/L

Q: What does the source list for `CN(C)CCOc1ccc(C[C@H](NC(=O)c2ccccc2)C(=O)N[C@H](CO)Cc2ccccc2)cc1.Cl` [Example 75, N-[N-berizoyl-O-(2-dimethylamino-ethyl)-L-tyrosyl]-L-phenylalaninol hydrochloride]?
A: TC50 [1]: 388.03 mg/L; Inhibition of HBsAg IC50 ([4]; 2.2.15 cells, day 8, RIA): 33.51 mg/L; Inhibition of DNA Replication IC50 [2]: 2.41 mg/L; Inhibition Ratio [3, 7]: 9.23; OD Value [3, 7]: 1.09; Inhibition Ratio ([3]; 12.5 mg/kg, 5th Day of Test): 12.87; OD Value ([3]; 12.5 mg/kg, 5th Day of Test): 1.11; Inhibition Ratio ([3]; 12.5 mg/kg, 10th Day of Test): 12.92^a; OD Value ([3]; 12.5 mg/kg, 10th Day of Test): 1.11^a; Inhibition Ratio [3, 8]: 38.12^d; OD Value [3, 8]: 0.87^b; Inhibition Ratio ([3]; 25.0 mg/kg, 5th Day of Test): 18.67^c; OD Value ([3]; 25.0 mg/kg, 5th Day of Test): 1.15^a; Inhibition Ratio ([3]; 25.0 mg/kg, 10th Day of Test): 32.91^d; OD Value ([3]; 25.0 mg/kg, 10th Day of Test): 0.95^b; Inhibition Ratio [3, 6]: 42.30^d; OD Value [3, 6]: 0.83^b; Inhibition Ratio ([3]; 50.0 mg/kg, 5th Day of Test): 36.43^c; OD Value ([3]; 50.0 mg/kg, 5th Day of Test): 0.94^a; Inhibition Ratio ([3]; 50.0 mg/kg, 10th Day of Test): 54.62^d; OD Value ([3]; 50.0 mg/kg, 10th Day of Test): 0.73^b; Inhibition of HBeAg IC50 [5]: 13.51 mg/L

Q: Which results are given for `CCC(=O)Nc1ccc(C(=O)N[C@@H](Cc2ccccc2)C(=O)N[C@@H](Cc2ccccc2)C(=O)OC)cc1` [Example 37, methyl N-[N-(4-propionamido-benzoyl)-L-phenylalanyl]-L-phenylalaninate] ({Propionyl-4Abz}-Phe-Phe-OMe)?
A: TC50 [1]: 129.34 mg/L (≈ 258 µM); IC50 [2]: 1.43 mg/L (≈ 2.85 µM); melting point: 225 to 227 °C

Q: Which results are given for `O=C(N[C@@H](Cc1ccccc1)C(=O)N[C@H](CO)Cc1ccccc1)c1ccc(CN2CCCC2)cc1` [Example 50, N-{N-[4-(1-pyrrolidyl)methyl-benzoyl]-L-phenylalanyl}-L-phenylalaninol]?
A: TC50 [1]: 64.15 mg/L (≈ 132 µM); IC50 [2]: 7.04 mg/L (≈ 14.5 µM); melting point: 164 to 165 °C

Q: For `CCOC(=O)c1ccc(C(=O)N[C@@H](Cc2ccccc2)C(=O)N[C@H](CO)Cc2ccccc2)cc1` [Example 52, N-[N-(4-ethoxycarbonyl-benzoyl)-L-phenylalanyl]-L-phenylalaninol], which TC50 [1] is on record?
A: 89.23 mg/L (≈ 188 µM)

Q: And the IC50 [2]?
A: 24.2 mg/L (≈ 51 µM)

Q: And the melting point?
A: 188 to 189.5 °C

Q: Which results are given for `COC(=O)[C@H](Cc1ccc(O)cc1)NC(=O)[C@H](Cc1ccccc1)NC(=O)c1ccc(NC(C)=O)cc1` [Example 36, methyl N-[N-(4-acetamido-benzoyl)-L-phenylalanyl]-L-tyrosinate] (Ac-[4Abz]-Phe-Tyr-OMe)?
A: TC50 [1]: 388.03 mg/L (≈ 771 µM); IC50 [2]: 4.56 mg/L (≈ 9.06 µM); melting point: 215.5 to 217 °C

Q: With `CCCCOc1ccc(C[C@H](NC(=O)[C@H](Cc2ccccc2)NC(=O)c2ccccc2)C(=O)[O-])cc1.[Na+]` [Example 74, N-(N-benzoyl-L-phenylalanyl)-O-n-butyl-L-tyrosine sodium salt] as the compound, how does the TC50 [1] read?
A: >500 mg/L

Q: And the IC50 ([4]; 2.2.15 cells, day 8, RIA)?
A: 25.2 mg/L

Q: And the IC50 [2]?
A: 33 mg/L

Q: For `O=C(N[C@@H](Cc1ccccc1)C(=O)N[C@H](CO)Cc1ccccc1)c1ccc(CN2CCOCC2)cc1` [Example 51, N-{N-[4-(4-morpholinyl)methyl-benzoyl]-L-phenylalanyl}-L-phenylalaninol], which TC50 [1] is on record?
A: 78.52 mg/L (≈ 157 µM)

Q: What about the IC50 [2] of the same compound?
A: 6.98 mg/L (≈ 13.9 µM)

Q: What about the melting point of the same compound?
A: 183 to 184.5 °C

Q: Which results are given for `COC(=O)[C@H](Cc1ccccc1)NC(=O)[C@H](Cc1ccc(O)cc1)NC(=O)c1ccc(Cl)cc1` [Example 20, methyl N-(N-4-chloro-benzoyl-L-tyrosyl)-L-phenylalaninate]?
A: TC50 [1]: 198.46 mg/L (≈ 413 µM); IC50 [2]: 48.5 mg/L (≈ 101 µM); melting point: 203.5 to 205 °C
